Entries after “also recorded” stand apart in the source; their conditions may differ.
Test system: HUVEC monolayers
Assay: Inhibition of macromolecule (HRP) permeability of thrombin-stimulated HUVEC monolayers
Assay type: cell-based, human
Conditions: 10 μM Motapizone (PDE3) and 1 μM RP73401 (PDE4) together, 1 U/ml thrombin
Description: Method to Assess Inhibition of Macromolecule Permeability of HUVEC Monolayers
The procedure to measure macromolecule permeability of endothelial cell monolayers followed the method described by Langeler & van Hinsbergh (1988) with modifications. Human umbilical vein endothelial cells were isolated from umbilical cords according to standard procedures (Jaffe et al. 1973) and cultured in endothelial cell basal medium (EBM) supplemented with 2% FCS, 0.5 ng/ml VEGF, 10 ng/ml bFGF, 5 ng/ml EGF, 20 ng/ml Long R3 IGF-1, 0.2 μg/ml hydrocortisone, 1 μg/ml ascorbic acid, 22.5 μg/ml heparin, 50 μg/ml gentamicin, 50 ng/ml amphotericin B (EGM2 purchased from Promocell GmbH, Heidelberg, Germany). At confluency, cells were trypsinized and replated at 73000 cells per well on 3 μm polycarbonate filter Transwell inserts (Costar GmbH, Bodenheim, Germany) precoated with 10 μg cm^2−1 Fibronectin (Sigma, Taufkirchen, Germany). HUVECs were cultured in EGM2 (100 μl in the upper wells and 600 μl in the lower wells) over four days prior the experiments and medium was changed every other day. At the day of the experiment culture medium was replaced by M199 with 1% human serum albumin. Endothelial cells were preincubated with cyclic nucleotide modifiers (the selective PDE3 inhibitor motapizone, the selective PDE4 inhibitor RP73401, the cGMP generators ANP or SNP and PDE2 inhibitors) for 15 min. HUVECs were then stimulated with Thrombin (1 U ml^−1) (Sigma, Taufkichen, Germany) and horsh radish peroxidase (5 μg/ml) (Sigma, Taufkirchen, Germany) as the macromolecule marker protein was added to the upper wells. Following 1 h incubation time Transwells were removed and the activity of horsh radish peroxidase that penetrated the endothelial cell monolayer was measured in the lower wells with the 3,3′,5,5′-tetramethylbenzidine liquid substrate system from Sigma (Taufkirchen, Germany).
In parallel, compounds according to the invention can inhibit Thrombin-induced permeability of HUVEC monolayers for horsh radish peroxidase (HRP) as a macromolecule marker. […] The concentration-dependent inhibition of HRP permeability at different concentrations was assessed from the percent inhibition in the presence and absence of the PDE2 inhibitors and in the presence of 1 μM RP73401, 10 μM Motapizone and 100 nM ANP.
Inhibition of SNP- or ANP-Induced Permeability of HUVEC Monolayers:
HUVEC cells on 3 μm polycarbonate filters (Transwells) were preincubated with 1 μM RP73401 (to block PDE4) and 10 μM Motapizone (to block PDE3), 1 mM SNP or 100 nM ANP and test sample over 15 min and then stimulated with 1 U/ml thrombin. HRP passage into the lower wells was assessed after 60 min.

SMILES	Thrombin-induced increase of HRP permeability (hyperpermeability)
CC1CC(=O)NN=C1c1cc(-n2ccnc2)cs1 (stereo not drawn) [Motapizone, reference compound]	completely abolished; also recorded: completely blocked
COc1ccc(C(=O)Nc2c(Cl)cncc2Cl)cc1OC1CCCC1 [RP73401, reference compound]	completely abolished; also recorded: completely blocked

Same assay, conditions: Homo sapiens, 1 h; HUVEC on Transwells, 1 μM RP73401, 10 μM Motapizone, 1 mM SNP or 100 nM ANP, 1 U/ml thrombin, HRP passage after 60 min; read-out: Inhibition of SNP- or ANP-induced permeability, −log IC50 [mol/l] (converted)

SMILES	IC50 [nM]
COc1ccc(-c2nnc3c4ccccc4c(Nc4cccc(NS(=O)(=O)c5ccc(OC)cc5)c4)nn23)cc1 [Compound 10, 4-Methoxy-N-{3-[3-(4-methoxy-phenyl)-[1,2,4]triazolo[3,4-a]phthalazin-6-ylamino]-phenyl}-benzenesulfonamide]	0.501 to 126
COc1ccc(-c2nnc3c4ccccc4c(Nc4cccc(NS(=O)(=O)c5cccs5)c4)nn23)cc1 [Compound 17, Thiophene-2-sulfonic acid {3-[3-(4-methoxy-phenyl)-[1,2,4]triazolo[3,4-a]phthalazin-6-ylamino]-phenyl}-amide]	0.501 to 126
COc1ccc(-c2nnc3c4ccccc4c(Nc4ccc(S(=O)(=O)N(C)C)cc4)nn23)cc1 [Compound 7, [4-(N,N-dimethylsulfamoyl)-phenyl]-[3-(4-methoxy-phenyl)-[1,2,4]triazolo[3,4-a]phthalazin-6-yl]-amine]	0.501 to 126
COc1ccc(-c2nnc3c4ccccc4c(Nc4cccc(NS(=O)(=O)Cc5ccccc5)c4)nn23)cc1 [Compound 15, N-{3-[3-(4-Methoxy-phenyl)-[1,2,4]triazolo[3,4-a]phthalazin-6-ylamino]-phenyl}-1-phenyl-methanesulfonamide]	0.501 to 126
COc1ccc(-c2nnc3c4ccccc4c(Nc4cccc(NS(=O)(=O)c5ccc(C)cc5)c4)nn23)cc1 [Compound 9, N-{3-[3-(4-Methoxy-phenyl)-[1,2,4]triazolo[3,4-a]phthalazin-6-ylamino]-phenyl}-4-methyl-benzenesulfonamide]	0.501 to 126
CN(C)S(=O)(=O)c1cccc(Nc2nn3c(-c4ccccc4Br)nnc3c3ccccc23)c1 [Compound 27, [3-(N,N-dimethylsulfamoyl)-phenyl]-[3-(2-bromo-phenyl)-[1,2,4]triazolo[3,4-a]phthalazin-6-yl]-amine]	0.501 to 126
CN(C)S(=O)(=O)c1cccc(Nc2nn3c(-c4ccccc4C(F)(F)F)nnc3c3ccccc23)c1 [Compound 33, [3-(N,N-dimethylsulfamoyl)-phenyl]-[3-(2-trifluoromethyl-phenyl)-[1,2,4]triazolo[3,4-a]phthalazin-6-yl]-amine]	0.501 to 126
COc1ccc(-c2nnc3c4ccccc4c(Nc4cccc(S(=O)(=O)N(C)C)c4)nn23)cc1 [Compound 13, [3-(N,N-dimethylsulfamoyl)-phenyl]-[3-(4-methoxy-phenyl)-[1,2,4]triazolo[3,4-a]phthalazin-6-yl]-amine]	0.501 to 126

Test system: not given
Assay: not given
Conditions: not given

SMILES	melting point
COc1ccc(-c2nnc3c4ccccc4c(Nc4ccc(-c5nn[nH]n5)cc4)nn23)cc1 [Compound T4, [3-(4-Methoxy-phenyl)-[1,2,4]triazolo[3,4-a]phthalazin-6-yl]-[4-(2H-tetrazol-5-yl)-phenyl]-amine]	281 to 284 °C
COc1ccc(-c2nnc3c4ccccc4c(Nc4cccc(NS(=O)(=O)c5ccc(OC)cc5)c4)nn23)cc1 [Compound 10, 4-Methoxy-N-{3-[3-(4-methoxy-phenyl)-[1,2,4]triazolo[3,4-a]phthalazin-6-ylamino]-phenyl}-benzenesulfonamide]	328 to 331 °C (dec.)
COc1ccc(-c2nnc3c4ccccc4c(Nc4cccc(NS(=O)(=O)c5cccs5)c4)nn23)cc1 [Compound 17, Thiophene-2-sulfonic acid {3-[3-(4-methoxy-phenyl)-[1,2,4]triazolo[3,4-a]phthalazin-6-ylamino]-phenyl}-amide]	327 to 331 °C
COc1ccc(-c2nnc3c4ccccc4c(Nc4cccc(S(N)(=O)=O)c4)nn23)cc1 [Compound 23, 3-[3-(4-Methoxy-phenyl)-[1,2,4]triazolo[3,4-a]phthalazin-6-ylamino]-benzenesulfonamide]	342 to 349 °C
COc1ccc(-c2nnc3c4ccccc4c(Nc4ccc(C#N)cc4)nn23)cc1 [Compound T2, 4-[3-(4-Methoxyphenyl)-[1,2,4]triazolo[3,4-a]phthalazin-6-ylamino]-benzonitrile]	314 °C
COc1ccc(-c2nnc3c4ccccc4c(Nc4cccc(-c5nnn(C)n5)c4)nn23)cc1 [Compound T5, [3-(4-Methoxy-phenyl)-[1,2,4]triazolo[3,4-a]phthalazin-6-yl]-[3-(2-methyl-2H-tetrazol-5-yl)-phenyl]-amine]	256 to 259 °C
COc1ccc(-c2nnc3c4ccccc4c(Nc4cccc(NS(=O)(=O)c5ccc(N6CCOCC6)nc5)c4)nn23)cc1 [Compound 16, 6-Morpholin-4-yl-pyridine-3-sulfonic acid {3-[3-(4-methoxy-phenyl)-[1,2,4]triazolo[3,4-a]phthalazin-6-ylamino]-phenyl}-amide]	323 to 329 °C
COc1ccc(-c2nnc3c4ccccc4c(Nc4cccc(NS(=O)(=O)Cc5ccccc5)c4)nn23)cc1 [Compound 15, N-{3-[3-(4-Methoxy-phenyl)-[1,2,4]triazolo[3,4-a]phthalazin-6-ylamino]-phenyl}-1-phenyl-methanesulfonamide]	289 to 292 °C
COc1ccc(-c2nnc3c4ccccc4c(Nc4ccc(-c5nnn(C)n5)cc4)nn23)cc1 [Compound T6, [3-(4-Methoxy-phenyl)-[1,2,4]triazolo[3,4-a]phthalazin-6-yl]-[4-(2-methyl-2H-tetrazol-5-yl)-phenyl]-amine]	289 to 293 °C
COc1ccc(-c2nnc3c4ccccc4c(Nc4cccc(S(=O)(=O)N(C)C)c4)nn23)cc1 [Compound 24, 3-[3-(4-Methoxy-phenyl)-[1,2,4]triazolo[3,4-a]phthalazin-6-ylamino]-N,N-dimethyl-benzenesulfonamide]	220 to 227 °C
COc1ccc(-c2nnc3c4ccccc4c(Nc4cccc(NS(=O)(=O)c5ccc(C)cc5)c4)nn23)cc1 [Compound 9, N-{3-[3-(4-Methoxy-phenyl)-[1,2,4]triazolo[3,4-a]phthalazin-6-ylamino]-phenyl}-4-methyl-benzenesulfonamide]	336 to 346 °C (dec.)
COc1ccc(-c2nnc3c4ccccc4c(Nc4cccc(NS(=O)(=O)c5ccc(NC(C)=O)cc5)c4)nn23)cc1 [Compound 18, N-(4-{3-[3-(4-Methoxy-phenyl)-[1,2,4]triazolo[3,4-a]phthalazin-6-ylamino]-phenylsulfamoyl}-phenyl)-acetamide]	328 to 331 °C
COc1ccc(-c2nnc3c4ccccc4c(Nc4cccc(-c5nn[nH]n5)c4)nn23)cc1 [Compound T3, [3-(4-Methoxy-phenyl)-[1,2,4]triazolo[3,4-a]phthalazin-6-yl]-[3-(2H-tetrazol-5-yl)-phenyl]-amine]	305 to 308 °C
COc1ccc(-c2nnc3c4ccccc4c(Nc4ccc(NS(=O)(=O)c5cn(C)cn5)cc4)nn23)cc1 [Compound 2, 1-Methyl-1H-imidazole-4-sulfonic acid {4-[3-(4-methoxy-phenyl)-[1,2,4]triazolo[3,4-a]phthalazin-6-ylamino]-phenyl}-amide]	346 to 348 °C
COc1ccc(-c2nnc3c4ccccc4c(Nc4cccc(NS(=O)(=O)c5ccc(C(C)=O)cc5)c4)nn23)cc1 [Compound 12, 4-Acetyl-N-{3-[3-(4-methoxy-phenyl)-[1,2,4]triazolo[3,4-a]phthalazin-6-ylamino]-phenyl}-benzenesulfonamide]	352 to 354 °C
COc1ccc(Cc2nnc3c4ccccc4c(Nc4cccc(-c5nn[nH]n5)c4)nn23)cc1 [Compound T8, [3-(4-Methoxy-benzyl)-[1,2,4]triazolo[3,4-a]phthalazin-6-yl]-[3-(2H-tetrazol-5-yl)-phenyl]-amine]	292 to 293 °C
COc1ccc(-c2nnc3c4ccccc4c(Nc4cccc(NS(=O)(=O)c5cn(C)cn5)c4)nn23)cc1 [Compound 11, 1-Methyl-1H-imidazole-4-sulfonic acid {3-[3-(4-methoxy-phenyl)-[1,2,4]triazolo[3,4-a]phthalazin-6-ylamino]-phenyl}-amide]	184 to 187 °C
COc1ccc(Cc2nnc3c4ccccc4c(Nc4ccc(S(=O)(=O)N5CCCCC5)cc4)nn23)cc1 [Compound 35, [3-(4-Methoxy-benzyl)-[1,2,4]triazolo[3,4-a]phthalazin-6-yl]-[4-(piperidine-1-sulfonyl)-phenyl]-amine]	283 to 285 °C
COc1ccc(-c2nnc3c4ccccc4c(Nc4ccc(NS(=O)(=O)c5cccc(OC)c5)cc4)nn23)cc1 [Compound 5, 3-Methoxy-N-{4-[3-(4-methoxy-phenyl)-[1,2,4]triazolo[3,4-a]phthalazin-6-ylamino]-phenyl}-benzenesulfonamide]	290 °C
COc1ccc(Cc2nnc3c4ccccc4c(Nc4cccc(-c5nnn(C)n5)c4)nn23)cc1 [Compound T9, [3-(4-Methoxy-benzyl)-[1,2,4]triazolo[3,4-a]phthalazin-6-yl]-[3-(2-methyl-2H-tetrazol-5-yl)-phenyl]-amine]	262 to 264 °C

Reference: US8106047B2, “Triazolophthalazines” (NYCOMED GmbH, priority 2005, dated 2012)
